Data: patent US20090325877A1, “Combination Product of Receptor Tyrosine Kinase Inhibitor and Fatty Acid Synthase Inhibitor for Treating Cancer” (Wyeth, priority 2008, published 2009)
Where two headings read alike, the source gives them in different places.

Assays:
[1] = system: FASN protein; assay: FASN protein level by Western blotting in A2780 cells; assay type: cell-based; details: b102: within three days, pelitinib at doses as low as 3 μM
[2] = system: A2780 ovarian cancer cells; assay: Formazan dye (MTT) in-vitro cell growth assay, A2780; assay type: cell-based; details: for in vitro growth inhibition (in words): A2780, MTT assay, single drug
Experimental: Effect of FAS and ErbB inhibition on A2780 ovarian cancer cells (OCC). […] Cells were grown for three days in the presence of vehicle (0.1% DMSO) or synthetic inhibitor before cell number was estimated. Data in the charts represent means +/−SD of triplicate measurements.
(§1) Cells were plated at 0.5−5×10^3/well in 96-well plates. After adhesion, media ±drugs alone or in combination were added. Cell numbers were estimated after 3-5 days by using a colorimetric formazan dye assay (Biomedica, Vienna, Austria). Results (mean±SD, n=3) were expressed in percent of untreated (solvent) control. Statistical analysis of data from drug combination treatment experiments was performed using one-factorial ANOVA followed by Scheffe-test.
(§2) Yellow MTT (3-(4,5-Dimethylthiazol-2-yl)-2,5-diphenyltetrazolium bromide, a tetrazole) is reduced to purple formazan in the mitochondria of living cells (see Mosmann, T., J. Immunol. Methods, 65(1-2): 55-63, 1983).

[3] = system: FASN mRNA; assay: FASN mRNA expression by qRT-PCR in A2780 cells; assay type: cell-based, human; details: b102: within three days, pelitinib at doses as low as 3 μM
Excerpt: (§3) RNA was extracted from the cells using TRI-REAGENT™ (Molecular Research Center, Cincinnati, Ohio) and subjected to reverse transcription—polymerase chain reaction (“RT-PCR”) using the TITAN ONE TUBE RT-PCR KIT™ system (Hoffmann-La Roche). Primers were: EGFR: 5′-[…]-3′ (SEQ ID NO:1) (forward, E1S) 5′-[…]-3′ (SEQ ID NO:2) (reverse, E1A); ErbB-2: 5′-[…]-3′ (SEQ ID NO:3) (forward, E2S2), 5′-[…]-3′ (SEQ ID NO:4) (reverse, E2A2); GAPDH: 5′-[…]-3′ (SEQ ID NO:5) (forward, GAPDH3S), 5′-[…]-3′ (SEQ ID NO:6) (reverse, GAPDH3A). Conditions for reverse transcription and amplification of the EGFR coding sequence were: 50° C., 30 minutes; 94° C., 2 minutes; 10 cycles (94° C., 30 seconds; 64.9° C., 30 seconds; 68° C., 90 seconds); 30 cycles (94° C., 30 seconds; 64.9° C., 30 seconds; 68° C., 90 seconds +5 seconds autoextension) and 68° C., 7 minutes. Conditions for ErbB2 and GAPDH were: 50° C., 30 minutes; 94° C., 2 minutes; 10 cycles (94° C., 30 seconds; 51° C., 30 seconds; 68° C., 45 seconds); 25 cycles (94° C., 30 seconds; 51° C., 30 seconds; 68° C., 45 seconds +5 seconds autoextension) and 68° C., 7 minutes. DNA products had the following sizes: EGFR: 1452 bp, ErbB2: 900 bp, GAPDH: 488 bp. Fragments were electrophoresed and stained with ethidium bromide.
(§4) Quantitative RT-PCR (“qRT-PCR”) was performed in the ABI PRISM 7000™ Sequence Detector (Applied Biosystems, Foster City, Calif.) using human EGFR, ErbB2, and FASN TaqMan® Gene Expression Assay systems (Applied Biosystems; Assay IDs: Hs00193306_m1, Hs00170433_m1, Hs00188012_m1) according to the manufacturer's instructions. β-actin and GAPDH (VIC™ and FAM labeled pre-developed TaqMan® Assay reagents, Applied Biosystems) were used as endogenous controls. EGFR, ErbB2, and FASN mRNA expression were calculated as described previously (Grunt, ibid).

[4] = system: SKOV3 ovarian cancer cells; assay: Formazan dye (MTT) in-vitro cell growth assay, SKOV3; assay type: cell-based; details: for in vitro growth inhibition (in words): MTT assay, single drug
Experimental: as §1, with “Results (mean±SD, n=3) were expressed in percent of untreated (solvent) control.” left out
as §2

[5] = system: FASN mRNA; assay: FASN mRNA levels in SKOV3 cells; assay type: cell-based, human
Excerpt: RNA was extracted from the cells using TRI-REAGENT™ (Molecular Research Center, Cincinnati, Ohio) and subjected to reverse transcription—polymerase chain reaction (“RT-PCR”) using the TITAN ONE TUBE RT-PCR KIT™ system (Hoffmann-La Roche). Primers were: EGFR: 5′-[…]-3′ (SEQ ID NO:1) (forward, E1S) 5′-[…]-3′ (SEQ ID NO:2) (reverse, E1A); ErbB-2: 5′-[…]-3′ (SEQ ID NO:3) (forward, E2S2), 5′-[…]-3′ (SEQ ID NO:4) (reverse, E2A2); GAPDH: 5′-[…]-3′ (SEQ ID NO:5) (forward, GAPDH3S), 5′-[…]-3′ (SEQ ID NO:6) (reverse, GAPDH3A). Conditions for reverse transcription and amplification of the EGFR coding sequence were: 50° C., 30 minutes; 94° C., 2 minutes; 10 cycles (94° C., 30 seconds; 64.9° C., 30 seconds; 68° C., 90 seconds); 30 cycles (94° C., 30 seconds; 64.9° C., 30 seconds; 68° C., 90 seconds +5 seconds autoextension) and 68° C., 7 minutes. […]
as §4

[6] = system: FASN protein; assay: FASN protein levels by Western blotting in SKOV3 cells; assay type: cell-based
Experimental: Cells plated in culture media containing 5% fetal calf serum at a density of 2.6×10^5 (SKOV3) or 6×10^5 (A2780) in 60 mm dishes (Corning, Corning, N.Y.) were treated with FASN inhibitor C75, with small-molecule ErbB RTK inhibitors (RTKIs), with the MEK1/2 antagonist U0126 or with the PI3K inhibitor LY294002 for the indicated times and at various concentrations. In some experiments cells were stimulated for 5 or 10 min with 100 ng/ml EGF (Sigma) before lysis in RIPA buffer (Grunt et al., Biochem Biophys Res Commun 329:1253-1259, 2005). Proteins (20 μg/lane) were subjected to SDS-PAGE, blotted onto PVDF membranes and immunostained (see Grunt, ibid) using the following antibodies: 2 μg/ml goat anti-pEGFR(Tyr1173) (sc-12351), 1 μg/ml rabbit anti-ErbB2 (C-18) (sc-284), 1 μg/ml rabbit anti-pErbB2(Tyr1248) (sc-12352-R) (all from Santa Cruz Biotechnology Inc., Santa Cruz, Calif.), rabbit anti-EGFR 1:1,000 (2232), rabbit anti-AKT 1:1,000 (9272), rabbit anti-pAKT(Ser473) 1:1,000 (9271), rabbit anti-pAKT(Thr308) 1:1,000 (9275), rabbit anti-pERK1/2(Thr202/Tyr204) 1:1,000 (9101) (all from Cell Signaling Technology), rabbit anti-ERK1/2 1:3,000 (06-182, Upstate Biotechnology Inc., Lake Placid, N.Y.), 0.5 μg/ml mouse monoclonal anti-FASN (610963, BD Biosciences, San Jose, Calif.), or 0.67 μg/ml goat anti-human actin (1-19, sc-1616, Santa Cruz Biotechnology). […]

[7] = system: ErbB2 protein; assay: Total and phosphorylated ErbB2 protein by Western blot in A2780 cells; assay type: cell-based
Experimental: Cells plated in culture media containing 5% fetal calf serum at a density of 2.6×10^5 (SKOV3) or 6×10^5 (A2780) in 60 mm dishes (Corning, Corning, N.Y.) were treated with FASN inhibitor C75, with small-molecule ErbB RTK inhibitors (RTKIs), with the MEK1/2 antagonist U0126 or with the PI3K inhibitor LY294002 for the indicated times and at various concentrations. In some experiments cells were stimulated for 5 or 10 min with 100 ng/ml EGF (Sigma) before lysis in RIPA buffer (Grunt et al., Biochem Biophys Res Commun 329:1253-1259, 2005). Proteins (20 μg/lane) were subjected to SDS-PAGE, blotted onto PVDF membranes and immunostained (see Grunt, ibid) using the following antibodies: 2 μg/ml goat anti-pEGFR(Tyr1173) (sc-12351), 1 μg/ml rabbit anti-ErbB2 (C-18) (sc-284), 1 μg/ml rabbit anti-pErbB2(Tyr1248) (sc-12352-R) (all from Santa Cruz Biotechnology Inc., Santa Cruz, Calif.), rabbit anti-EGFR 1:1,000 (2232), rabbit anti-AKT 1:1,000 (9272), rabbit anti-pAKT(Ser473) 1:1,000 (9271), rabbit anti-pAKT(Thr308) 1:1,000 (9275), rabbit anti-pERK1/2(Thr202/Tyr204) 1:1,000 (9101) (all from Cell Signaling Technology), rabbit anti-ERK1/2 1:3,000 (06-182, Upstate Biotechnology Inc., Lake Placid, N.Y.), 0.5 μg/ml mouse monoclonal anti-FASN (610963, BD Biosciences, San Jose, Calif.), or 0.67 μg/ml goat anti-human actin (1-19, sc-1616, Santa Cruz Biotechnology). Secondary antibodies were peroxidase-tagged donkey-anti-rabbit IgG (V795A, Promega, Madison, Wis.) or donkey-anti-goat IgG (sc-2020, Santa Cruz Biotechnology) at 1:15,000, respectively, or chicken anti-mouse IgG (sc-2954, Santa Cruz Biotechnology) at 1:10,000. Detection was performed by enhanced chemiluminescence.

[8] = system: EGFR protein; assay: EGFR protein and tyrosine phosphorylation by Western blot in A2780 cells; assay type: cell-based
[9] = system: EGFR mRNA; assay: EGFR mRNA by RT-PCR and qRT-PCR in A2780 cells; assay type: cell-based, human
Experimental: RNA was extracted from the cells using TRI-REAGENT™ (Molecular Research Center, Cincinnati, Ohio) and subjected to reverse transcription—polymerase chain reaction (“RT-PCR”) using the TITAN ONE TUBE RT-PCR KIT™ system (Hoffmann-La Roche). […] Conditions for ErbB2 and GAPDH were: 50° C., 30 minutes; 94° C., 2 minutes; 10 cycles (94° C., 30 seconds; 51° C., 30 seconds; 68° C., 45 seconds); 25 cycles (94° C., 30 seconds; 51° C., 30 seconds; 68° C., 45 seconds +5 seconds autoextension) and 68° C., 7 minutes. […] Fragments were electrophoresed and stained with ethidium bromide.
as §4

[10] = system: ErbB2 mRNA; assay: ErbB2 mRNA by RT-PCR and qRT-PCR in A2780 cells; assay type: cell-based, human
Excerpt: as §3, §4

Molecule	FASN protein expression, effect in words [1]	in vitro growth inhibition (in words) [2]	FASN mRNA expression, effect in words [3]	in vitro growth inhibition (in words) [4]	phosphorylated ErbB2 (pErbB2), effect in words [7]	total ErbB2 protein, effect in words [7]	EGFR total protein, effect in words [8]	EGFR mRNA, effect in words [9]	ErbB2 mRNA, effect in words [10]	also measured
C#Cc1cccc(Nc2ncnc3cc(OCCOC)c(OCCOC)cc23)c1 [erlotinib]	effect was also seen	does not significantly inhibit growth	effect was also seen	does not significantly inhibit growth	–	–	–	–	–	–
N#CC(=C(/N)Sc1ccccc1N)/C(C#N)=C(\N)Sc1ccccc1N [U0126]	–	–	–	–	–	–	–	–	–	FASN mRNA levels, effect in words [5]: does not affect; FASN protein levels, effect in words [6]: does not affect
C=CC(=O)Nc1cc2c(Nc3ccc(F)c(Cl)c3)ncnc2cc1OCCCN1CCOCC1 [canertinib]	effect was also seen	growth inhibitory activity	effect was also seen	growth inhibitory activity	strongly diminishes	slightly attenuates	does not diminish	does not diminish	fails to down-regulate	–
CCOc1cc2ncc(C#N)c(Nc3ccc(F)c(Cl)c3)c2cc1NC(=O)C=CCN(C)C [EKB-569, 4-Dimethylamino-but-2-enoic acid [4-(3-chloro-4-fluoro-phenylamino)-3-cyano-7-ethoxy-quinolin-6-yl]-amide]	represses	growth inhibitory activity	represses	growth inhibitory activity	abolishes	abolishes	abolishes	weak dose-dependent repression	only weakly depresses	FASN protein expression, effect in words ([1]; listed as pelitinib): abrogated; IC50 ([2]; Homo sapiens, 72 h, A2780 OCC, each individual inhibitor, 50% reduction of cell growth, three days, n = 3-5, read-out: IC50 (μM) Mean +/− SD): 5.14 µM; phosphorylated ErbB2 (pErbB2), effect in words ([7]; listed as pelitinib): abrogated; total ErbB2 protein, effect in words ([7]; listed as pelitinib): abrogated; FASN mRNA expression, effect in words ([3]; listed as pelitinib): abrogated; EGFR tyrosine phosphorylation (activity), effect in words [8]: dose-dependent reduction; EGFR total protein, effect in words ([8]; listed as pelitinib): dose-dependent down-regulation; EGFR tyrosine phosphorylation (activity), effect in words ([8]; listed as pelitinib): completely abrogates; EGFR mRNA, effect in words ([9]; listed as pelitinib): dose-dependent down-regulation; ErbB2 mRNA, effect in words ([10]; listed as pelitinib): do not appear to be affected
matuzumab: Humanized mAb; EGFR (antibody, chains of the INN, looked up, V domains shown) VH: QVQLVQSGAEVKKPGASVKVSCKASGYTFTSHWMHWVRQAPGQGLEWIGEFNPSNGRTNYNEKFKSKATMTVDTSTNTAYMELSSLRSEDTAVYYCASRDYDYDGRYFDYWGQGTLVTVSS VL: DIQMTQSPSSLSASVGDRVTITCSASSSVTYMYWYQQKPGKAPKLLIYDTSNLASGVPSRFSGSGSGTDYTFTISSLQPEDIATYYCQQWSSHIFTFGQGTKVEIK	–	–	–	–	–	–	–	–	–	growth inhibition ([4]; antibody alone at 20 μg/ml): ~10%
